Legend:
[1] = tested on: Aspergillus fumigatus TIMM0063; experiment: In vitro anti-Aspergillus activity test; format: cell-based; details: 80% or more inhibition, unit inferred
Procedure: Aspergillus fumigatus TIMM0063 was used as the strain. The test fungi were cultured on a Potato dextrose agar slant medium at 35° C. for 4 days, and then sterilized saline containing 0.1% (v/v) Tween 80 was added to release the conidia. This conidial suspension was filtered through sterile gauze, and the number of conidia was counted using a hemocytometer. The same solution was adjusted to a conidial concentration of 1×10^6 conidia/mL, and this was used as an inoculum. Each compound was dissolved in dimethyl sulfoxide to a predetermined concentration, and diluted 50-fold with 0.165 M MOPS buffered RPMI 1640 liquid medium, and each diluted solution was dispensed into a 96-well microplate by each 100 μL. The inoculum was diluted 50-fold with 0.165 M MOPS buffered RPMI 1640 liquid medium containing 20% alamar Blue™, and the diluted solution was inoculated into the 96-well microplate containing the compound by each 100 μL (final inoculum amount 1.0×10^4 conidia/mL). After static culture at 35° C. for 48 hr, the degree of color development of the alamar Blue™ was measured using a microplate reader (O.D. 570-595 nm), and the minimum concentration showing 80% or more inhibition was defined as the minimum inhibitory concentration (MIC).

[2] = tested on: Candida albicans NBRC1270; experiment: In vitro anti-Candida activity test; format: cell-based; details: 80% or more inhibition, unit inferred
Procedure: Candida albicans NBRC1270 was used as the strain. The test fungi were cultured on a Sabouraud dextrose agar slant medium at 35° C. for 24 hr, and then suspended in sterilized saline. The number of cells in this suspension was counted using a hemocytometer, and the same suspension was adjusted to a cell concentration of 1.5×10^5 cells/mL, and this was used as an inoculum. Each compound was dissolved in dimethyl sulfoxide to a predetermined concentration, and diluted 50-fold with 0.165 M MOPS buffered RPMI 1640 liquid medium, and each diluted solution was dispensed into a 96-well microplate by each 100 μL. The inoculum was diluted 50-fold with 0.165 M MOPS buffered RPMI 1640 liquid medium containing 20% alamar Blue™, and the diluted solution was inoculated into the 96-well microplate containing the compound by each 100 μL (final inoculum amount 1.5×10^3 cells/mL). After static culture at 35° C. for 24 hr, the degree of color development of the alamar Blue™ was measured using a microplate reader (O.D. 570-595 nm), and the minimum concentration showing 80% or more inhibition was defined as the minimum inhibitory concentration (MIC).

## N#C/C(=C1/SCC(c2ncc(NC(=O)OCc3ncc(F)cc3F)cc2Cl)S1)n1cncn1 (racemic) [compound 75]
[1]; Table 23, 35° C. for 48 hr
  A. fumigatus (MIC): 10 ng/mL
[2]; Table 23, 35° C. for 24 hr
  C. albicans (MIC): 10 ng/mL

## CC(C)COC(=O)Nc1cnc(C2CS/C(=C(/C#N)n3cncn3)S2)c(Cl)c1 (racemic) [compound 83]
[1]; Table 23, 35° C. for 48 hr
  A. fumigatus (MIC): 10 ng/mL
[2]; Table 23, 35° C. for 24 hr
  C. albicans (MIC): 5 ng/mL

## CCCOC(=O)Nc1cnc(C2CS/C(=C(/C#N)n3cncn3)S2)c(Cl)c1 (racemic) [compound 84]
[1]; Table 23, 35° C. for 48 hr
  A. fumigatus (MIC): 5 ng/mL
[2]; Table 23, 35° C. for 24 hr
  C. albicans (MIC): 5 ng/mL

## N#C/C(=C1/SCC(c2ncc(NC(=O)OCC3CC3)cc2Cl)S1)n1cncn1 (racemic) [compound 87]
[1]; Table 23, 35° C. for 48 hr
  A. fumigatus (MIC): 5 ng/mL
[2]; Table 23, 35° C. for 24 hr
  C. albicans (MIC): 1.25 ng/mL

## N#C/C(=C1/SCC(c2ncc(NC(=O)OCc3ccc(F)cc3)cc2Cl)S1)n1cncn1 (racemic) [compound 89]
[1]; Table 23, 35° C. for 48 hr
  A. fumigatus (MIC): 10 ng/mL
[2]; Table 23, 35° C. for 24 hr
  C. albicans (MIC): 2.5 ng/mL

## N#C/C(=C1/SCC(c2ncc(NC(=O)OCC3CC3(F)F)cc2Cl)S1)n1cncn1 (racemic) [compound 96]
[1]; Table 23, 35° C. for 48 hr
  A. fumigatus (MIC): 10 ng/mL
[2]; Table 23, 35° C. for 24 hr
  C. albicans (MIC): 5 ng/mL

## N#C/C(=C1/SCC(c2ncc(NC(=O)OCC3CCC3)cc2Cl)S1)n1cncn1 (racemic) [compound 97]
[1]; Table 23, 35° C. for 48 hr
  A. fumigatus (MIC): 10 ng/mL
[2]; Table 23, 35° C. for 24 hr
  C. albicans (MIC): 2.5 ng/mL

## N#C/C(=C1/SCC(c2ncc(NC(=O)OCc3cccc(F)c3)cc2Cl)S1)n1cncn1 (racemic) [compound 98]
[1]; Table 23, 35° C. for 48 hr
  A. fumigatus (MIC): 5 ng/mL
[2]; Table 23, 35° C. for 24 hr
  C. albicans (MIC): 2.5 ng/mL

## N#C/C(=C1/SCC(c2ncc(NC(=O)OCc3ccccc3F)cc2Cl)S1)n1cncn1 (racemic) [compound 99]
[1]; Table 23, 35° C. for 48 hr
  A. fumigatus (MIC): 5 ng/mL
[2]; Table 23, 35° C. for 24 hr
  C. albicans (MIC): 2.5 ng/mL

## N#C/C(=C1/SCC(c2ncc(NC(=O)OCC3CC3)cc2F)S1)n1cncn1 (racemic) [compound 103]
[1]; Table 23, 35° C. for 48 hr
  A. fumigatus (MIC): 10 ng/mL
[2]; Table 23, 35° C. for 24 hr
  C. albicans (MIC): 5 ng/mL

## N#C/C(=C1/SCC(c2ncc(NC(=O)OCC3CC(F)(F)C3)cc2Cl)S1)n1cncn1 (racemic) [compound 107]
[1]; Table 23, 35° C. for 48 hr
  A. fumigatus (MIC): 10 ng/mL
[2]; Table 23, 35° C. for 24 hr
  C. albicans (MIC): 5 ng/mL

## N#C/C(=C1/SCC(c2ncc(NC(=O)OCc3ccncc3F)cc2Cl)S1)n1cncn1 (racemic) [compound 114]
[1]; Table 24, 35° C. for 48 hr
  A. fumigatus (MIC): 10 ng/mL
[2]; Table 24, 35° C. for 24 hr
  C. albicans (MIC): 10 ng/mL

## N#C/C(=C1/SCC(c2ncc(NC(=O)OCc3ccnc(F)c3)cc2Cl)S1)n1cncn1 (racemic) [compound 115]
[1]; Table 24, 35° C. for 48 hr
  A. fumigatus (MIC): 10 ng/mL
[2]; Table 24, 35° C. for 24 hr
  C. albicans (MIC): 5 ng/mL

## CC1CC1COC(=O)Nc1cnc(C2CS/C(=C(/C#N)n3cncn3)S2)c(Cl)c1 (racemic) [compound 118]
[1]; Table 24, 35° C. for 48 hr
  A. fumigatus (MIC): 5 ng/mL
[2]; Table 24, 35° C. for 24 hr
  C. albicans (MIC): 1.25 ng/mL

## N#C/C(=C1/SCC(c2ncc(NC(=O)OCC3CC3(F)F)cc2F)S1)n1cncn1 (racemic) [compound 128]
[1]; Table 24, 35° C. for 48 hr
  A. fumigatus (MIC): 10 ng/mL
[2]; Table 24, 35° C. for 24 hr
  C. albicans (MIC): 10 ng/mL

## N#CC(=C1SCC(c2ncc(C=NOCC3CC3)cc2Cl)S1)n1cncn1 (racemic) [compound 139]
[1]; Table 24, 35° C. for 48 hr
  A. fumigatus (MIC): 2.5 ng/mL
[2]; Table 24, 35° C. for 24 hr
  C. albicans (MIC): 1.25 ng/mL

## N#CC(=C1SCC(c2ncc(C=NOCC3CC3)cc2F)S1)n1cncn1 (racemic) [compound 140]
[1]; Table 24, 35° C. for 48 hr
  A. fumigatus (MIC): 2.5 ng/mL
[2]; Table 24, 35° C. for 24 hr
  C. albicans (MIC): 2.5 ng/mL

## CCCON=Cc1cnc(C2CSC(=C(C#N)n3cncn3)S2)c(Cl)c1 (racemic) [compound 141]
[1]; Table 24, 35° C. for 48 hr
  A. fumigatus (MIC): 2.5 ng/mL
[2]; Table 24, 35° C. for 24 hr
  C. albicans (MIC): 2.5 ng/mL

## CC(C)ON=Cc1cnc(C2CSC(=C(C#N)n3cncn3)S2)c(Cl)c1 (racemic) [compound 142]
[1]; Table 24, 35° C. for 48 hr
  A. fumigatus (MIC): 10 ng/mL
[2]; Table 24, 35° C. for 24 hr
  C. albicans (MIC): 2.5 ng/mL

Reference: patent US20250197384A1, “AZOLE COMPOUND AND ANTIFUNGAL AGENT” (NIHON NOHYAKU CO., LTD., priority 2022, published 2025)
